According to article PMC10746543, “Design principles for cyclin K molecular glue degraders” (Nature Chemical Biology, 2023):
“And” between values parts separate entries of the source, which are not always exact repeats. Identical values can stand only once.

Columns and labels:
CDK12–cyclin K and DDB1 = biological target: T1, CDK12–cyclin K and DDB1 (Homo sapiens, UniProt Q16531+Q9NYV4, K965R); assay: TR-FRET Kd determination, quadratic fit, 50 nM or 10 nM CDK12–cyclin K; format: binding
T1 construct: His6–CDK12 (a.a. 713–1,052); full-length or beta-propeller B domain deletion (ΔBPB: a.a. 396–705 deleted) constructs of His6–DDB1ΔBPB, StrepII–Avi–DDB1, or His6–Spy–DDB1; made in house; host or cells: Trichoplusia ni High Five insect cells (baculovirus)
T1 sequence (Q9NYV4 713-1052 K965R): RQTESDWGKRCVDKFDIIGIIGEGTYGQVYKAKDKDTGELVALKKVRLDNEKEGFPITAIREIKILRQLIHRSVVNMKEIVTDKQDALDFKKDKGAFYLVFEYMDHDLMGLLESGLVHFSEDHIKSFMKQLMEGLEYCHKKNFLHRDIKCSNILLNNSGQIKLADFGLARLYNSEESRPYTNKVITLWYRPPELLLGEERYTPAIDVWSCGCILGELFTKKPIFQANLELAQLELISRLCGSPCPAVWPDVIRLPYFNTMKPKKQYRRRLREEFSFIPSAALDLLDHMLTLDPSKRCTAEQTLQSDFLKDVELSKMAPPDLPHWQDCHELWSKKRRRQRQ
T1 sequence (O75909 1-267 partner): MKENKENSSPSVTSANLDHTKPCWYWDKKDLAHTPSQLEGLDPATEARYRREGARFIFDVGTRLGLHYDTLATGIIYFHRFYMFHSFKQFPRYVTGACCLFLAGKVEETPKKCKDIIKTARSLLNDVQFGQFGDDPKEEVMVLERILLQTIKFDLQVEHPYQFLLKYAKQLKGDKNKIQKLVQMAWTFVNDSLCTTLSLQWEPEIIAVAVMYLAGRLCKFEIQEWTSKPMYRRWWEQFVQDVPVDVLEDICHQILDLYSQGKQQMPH
T1 sequence (Q16531 whole entry): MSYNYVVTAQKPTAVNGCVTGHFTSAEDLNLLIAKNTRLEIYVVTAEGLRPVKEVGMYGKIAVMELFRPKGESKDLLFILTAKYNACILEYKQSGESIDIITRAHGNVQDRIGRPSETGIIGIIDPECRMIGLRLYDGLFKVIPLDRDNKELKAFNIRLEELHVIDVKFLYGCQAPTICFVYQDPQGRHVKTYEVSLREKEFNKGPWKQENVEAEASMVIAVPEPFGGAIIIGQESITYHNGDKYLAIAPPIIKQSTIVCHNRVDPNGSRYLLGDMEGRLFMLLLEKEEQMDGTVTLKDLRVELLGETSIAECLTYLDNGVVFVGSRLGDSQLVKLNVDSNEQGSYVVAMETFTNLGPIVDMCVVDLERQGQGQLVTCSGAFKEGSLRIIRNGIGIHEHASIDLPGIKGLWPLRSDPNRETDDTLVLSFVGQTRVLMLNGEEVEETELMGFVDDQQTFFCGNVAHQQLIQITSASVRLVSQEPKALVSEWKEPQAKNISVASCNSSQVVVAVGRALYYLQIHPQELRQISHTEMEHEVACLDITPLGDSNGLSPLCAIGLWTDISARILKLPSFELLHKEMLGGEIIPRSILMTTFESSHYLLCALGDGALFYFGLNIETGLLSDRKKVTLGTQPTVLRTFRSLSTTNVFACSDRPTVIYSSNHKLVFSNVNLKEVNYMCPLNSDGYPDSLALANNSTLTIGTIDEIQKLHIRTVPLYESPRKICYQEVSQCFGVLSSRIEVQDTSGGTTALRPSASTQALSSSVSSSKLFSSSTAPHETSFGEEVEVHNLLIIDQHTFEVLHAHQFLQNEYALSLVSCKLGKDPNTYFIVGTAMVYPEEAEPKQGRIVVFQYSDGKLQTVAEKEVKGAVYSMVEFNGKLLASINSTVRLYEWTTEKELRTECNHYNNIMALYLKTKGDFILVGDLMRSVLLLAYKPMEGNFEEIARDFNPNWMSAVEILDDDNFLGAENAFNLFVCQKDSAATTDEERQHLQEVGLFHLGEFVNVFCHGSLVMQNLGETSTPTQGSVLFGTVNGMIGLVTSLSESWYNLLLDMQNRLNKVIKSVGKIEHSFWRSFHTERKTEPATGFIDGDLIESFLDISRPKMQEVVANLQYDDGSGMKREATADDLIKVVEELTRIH
Text: Equation (2) is a quadratic binding equation used for Kd determination,where Top and Bottom refer to the curve plateaus. […]

CDK12 = biological target: T2, CDK12 (Homo sapiens, UniProt Q16531+Q9NYV4); assay: Label-free quantitative mass spectrometry in MDA-MB-231 cells, CDK12; format: cell-based; settings: for CDK12 peptide count: label-free quantitative MS, replicate values; for CDK12 peptide count (DMSO-normalised): normalised to DMSO = 1, replicate values
T2 construct: endogenous in cells; host or cells: MDA-MB-231
T2 sequence (Q9NYV4 whole entry): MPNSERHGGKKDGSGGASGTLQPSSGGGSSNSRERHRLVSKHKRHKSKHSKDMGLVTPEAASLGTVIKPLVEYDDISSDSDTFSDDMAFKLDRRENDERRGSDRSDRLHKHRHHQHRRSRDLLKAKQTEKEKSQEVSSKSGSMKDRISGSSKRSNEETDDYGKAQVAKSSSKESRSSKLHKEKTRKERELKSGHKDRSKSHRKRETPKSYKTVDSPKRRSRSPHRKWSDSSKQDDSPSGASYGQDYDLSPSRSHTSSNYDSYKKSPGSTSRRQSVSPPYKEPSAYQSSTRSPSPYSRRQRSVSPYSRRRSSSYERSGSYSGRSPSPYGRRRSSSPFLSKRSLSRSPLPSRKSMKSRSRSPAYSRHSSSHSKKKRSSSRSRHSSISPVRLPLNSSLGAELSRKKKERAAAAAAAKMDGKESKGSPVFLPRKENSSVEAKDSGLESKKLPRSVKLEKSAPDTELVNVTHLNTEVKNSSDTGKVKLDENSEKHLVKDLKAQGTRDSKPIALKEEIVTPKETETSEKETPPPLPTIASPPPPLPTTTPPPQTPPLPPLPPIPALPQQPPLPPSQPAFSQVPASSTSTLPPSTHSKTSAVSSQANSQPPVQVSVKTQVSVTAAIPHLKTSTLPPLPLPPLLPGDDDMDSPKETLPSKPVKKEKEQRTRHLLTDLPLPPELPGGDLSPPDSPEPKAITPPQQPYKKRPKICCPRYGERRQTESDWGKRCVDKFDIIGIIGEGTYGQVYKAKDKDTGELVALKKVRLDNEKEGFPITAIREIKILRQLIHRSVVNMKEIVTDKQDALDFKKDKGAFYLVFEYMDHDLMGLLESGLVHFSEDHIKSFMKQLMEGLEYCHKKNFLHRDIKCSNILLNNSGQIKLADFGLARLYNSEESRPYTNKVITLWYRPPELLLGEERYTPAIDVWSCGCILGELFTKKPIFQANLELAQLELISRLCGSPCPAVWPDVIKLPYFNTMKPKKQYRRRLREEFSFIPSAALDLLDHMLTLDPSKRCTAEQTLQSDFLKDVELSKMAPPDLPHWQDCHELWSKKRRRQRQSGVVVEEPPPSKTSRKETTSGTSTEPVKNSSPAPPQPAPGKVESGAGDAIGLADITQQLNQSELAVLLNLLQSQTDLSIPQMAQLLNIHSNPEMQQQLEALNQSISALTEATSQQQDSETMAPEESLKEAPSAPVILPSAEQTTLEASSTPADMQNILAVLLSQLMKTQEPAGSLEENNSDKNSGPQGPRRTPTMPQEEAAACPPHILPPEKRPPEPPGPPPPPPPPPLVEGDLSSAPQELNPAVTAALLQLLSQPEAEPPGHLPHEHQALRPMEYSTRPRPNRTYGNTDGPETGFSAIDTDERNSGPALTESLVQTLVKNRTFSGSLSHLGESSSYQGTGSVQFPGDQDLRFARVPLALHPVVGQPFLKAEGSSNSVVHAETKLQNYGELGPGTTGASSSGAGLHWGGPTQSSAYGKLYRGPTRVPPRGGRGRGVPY
T2 sequence (O75909 whole entry partner): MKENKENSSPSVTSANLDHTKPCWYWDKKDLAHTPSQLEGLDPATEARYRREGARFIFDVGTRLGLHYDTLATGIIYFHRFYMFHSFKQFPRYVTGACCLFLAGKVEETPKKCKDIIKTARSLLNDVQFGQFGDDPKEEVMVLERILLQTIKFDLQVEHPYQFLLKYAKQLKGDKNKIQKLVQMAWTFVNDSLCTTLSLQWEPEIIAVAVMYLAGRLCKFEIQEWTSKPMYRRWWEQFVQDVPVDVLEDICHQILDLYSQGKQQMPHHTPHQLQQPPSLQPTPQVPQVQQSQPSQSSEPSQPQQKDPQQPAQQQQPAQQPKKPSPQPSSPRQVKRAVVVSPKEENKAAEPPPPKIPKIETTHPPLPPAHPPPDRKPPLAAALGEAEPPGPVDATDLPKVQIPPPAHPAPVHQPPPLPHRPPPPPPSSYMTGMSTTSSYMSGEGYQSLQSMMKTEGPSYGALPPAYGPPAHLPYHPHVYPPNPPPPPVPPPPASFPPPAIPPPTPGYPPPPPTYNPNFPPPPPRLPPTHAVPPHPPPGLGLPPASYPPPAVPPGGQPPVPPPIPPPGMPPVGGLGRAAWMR
T2 sequence (Q16531 2-1140 limits assumed): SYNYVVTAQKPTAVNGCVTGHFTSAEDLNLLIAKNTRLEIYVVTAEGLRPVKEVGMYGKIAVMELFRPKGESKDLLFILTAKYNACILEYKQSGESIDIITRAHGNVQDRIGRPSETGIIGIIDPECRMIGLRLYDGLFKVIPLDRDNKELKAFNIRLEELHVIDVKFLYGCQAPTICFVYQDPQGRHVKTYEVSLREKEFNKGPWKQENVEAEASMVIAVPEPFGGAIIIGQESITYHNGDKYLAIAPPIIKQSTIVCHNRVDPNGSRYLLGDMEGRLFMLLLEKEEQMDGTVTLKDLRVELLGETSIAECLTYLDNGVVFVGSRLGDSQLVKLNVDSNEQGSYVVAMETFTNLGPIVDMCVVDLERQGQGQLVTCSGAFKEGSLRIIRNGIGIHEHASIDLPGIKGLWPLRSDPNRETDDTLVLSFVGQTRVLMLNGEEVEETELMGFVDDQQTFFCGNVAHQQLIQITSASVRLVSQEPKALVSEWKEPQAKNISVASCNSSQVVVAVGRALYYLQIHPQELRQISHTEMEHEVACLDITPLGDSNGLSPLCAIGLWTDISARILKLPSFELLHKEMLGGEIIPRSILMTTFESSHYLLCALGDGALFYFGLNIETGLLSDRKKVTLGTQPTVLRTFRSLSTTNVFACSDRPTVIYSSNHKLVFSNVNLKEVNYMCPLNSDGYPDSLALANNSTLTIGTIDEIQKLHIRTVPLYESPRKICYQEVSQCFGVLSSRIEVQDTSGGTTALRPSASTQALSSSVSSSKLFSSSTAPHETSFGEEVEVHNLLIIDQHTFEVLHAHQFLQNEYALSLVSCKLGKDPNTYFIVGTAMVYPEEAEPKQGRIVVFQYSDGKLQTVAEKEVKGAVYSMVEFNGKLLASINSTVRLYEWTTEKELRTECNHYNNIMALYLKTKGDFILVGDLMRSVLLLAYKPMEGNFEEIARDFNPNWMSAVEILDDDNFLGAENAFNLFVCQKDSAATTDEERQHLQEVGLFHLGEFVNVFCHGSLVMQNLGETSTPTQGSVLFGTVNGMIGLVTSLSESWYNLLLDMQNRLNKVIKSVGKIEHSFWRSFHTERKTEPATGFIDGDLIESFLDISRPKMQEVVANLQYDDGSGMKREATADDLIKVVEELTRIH
Description: MDA-MB-231 cells were treated with DMSO or a cyclin K degrader compound at 1 µM for 5 h. Cells were collected by centrifugation and washed with phosphate-buffered saline before snap freezing in liquid nitrogen. Cells were lysed by addition of lysis buffer (8 M urea, 50 mM NaCl, 50 mM 4-(2-hydroxyethyl)-1-piperazineethanesulfonic acid (EPPS) pH 8.5, and protease and phosphatase inhibitors) and homogenization by bead beating (BioSpec) for three repeats of 30 s at 2,400 rpm. Bradford assay was used to determine the final protein concentration in the clarified cell lysate. Then 50 µg of protein for each sample was reduced, alkylated and precipitated using methanol/chloroform as previously described, and the resulting washed precipitated protein was allowed to air dry. Precipitated protein was resuspended in 4 M urea, 50 mM HEPES pH 7.4, followed by dilution to 1 M urea with the addition of 200 mM EPPS, pH 8. Proteins were first digested with LysC (1:50; enzyme:protein) for 12 h at room temperature. The LysC digestion was diluted to 0.5 M urea with 200 mM EPPS pH 8 followed by digestion with trypsin (1:50; enzyme:protein) for 6 h at 37 °C. Sample digests were acidified with formic acid to a pH of 2–3 before desalting using C18 solid phase extraction plates (SOLA, Thermo Fisher Scientific). Desalted peptides were dried in a vacuum-centrifuged and reconstituted in 0.1% formic acid for liquid chromatography–mass spectrometry analysis.
Data were collected using a TimsTOF Pro2 (Bruker Daltonics) coupled to a nanoElute LC pump (Bruker Daltonics) via a CaptiveSpray nano-electrospray source. Peptides were separated on a reversed-phase C18 column (25 cm × 75 µm inner diameter, […], IonOpticks) containing an integrated captive spray emitter. Peptides were separated using a 50 min gradient of 2–30% buffer B (acetonitrile in 0.1% formic acid) with a flow rate of 250 nl min^−1 and column temperature maintained at 50 °C.
Data-dependent acquisition (DDA) was performed in Parallel Accumulation-Serial Fragmentation (PASEF) mode to determine effective ion mobility windows for downstream diaPASEF data collection. The ddaPASEF parameters included: 100% duty cycle using accumulation and ramp times of 50 ms each, one Trapped Ion Mobility Spectrometry(TIMS)-MS scan and ten PASEF ramps per acquisition cycle. The TIMS-MS survey scan was acquired between 100 m/z and 1,700 m/z and 1/K0 of 0.7–1.3 V s cm^−2. Precursors with one to five charges were selected, and those that reached an intensity threshold of 20,000 arbitrary units were actively excluded for 0.4 min. The quadrupole isolation width was set to 2 m/z for m/z < 700 and 3 m/z for m/z > 800, with the m/z between 700 m/z and 800 m/z being interpolated linearly. […] To perform diaPASEF, the precursor distribution in the DDA m/z-ion mobility plane was used to design an acquisition scheme for data-independent acquisition (DIA) data collection that included two windows in each 50 ms diaPASEF scan. Data were acquired using 16 of these 25 Da precursor double window scans (creating 32 windows) that covered the diagonal scan line for doubly and triply charged precursors, with singly charged precursors able to be excluded by their position in the m/z-ion mobility plane. These precursor isolation windows were defined between 400 m/z and 1,200 m/z and 1/K0 of 0.7–1.3 V s cm^−2.
DirectDIA mode includes first extracting the DIA data into a collection of MS2 spectra which are searched using Spectronaut’s Pulsar search engine. The search results are then used to generate a spectral library which is then employed for the targeted analysis of the DIA data. MS/MS spectra were searched against a Swissprot human database (January 2021). Database search criteria largely followed the default settings for directDIA including: tryptic with two missed cleavages, fixed carbomidomethylation of cysteine, and variable oxidation of methionine and acetylation of protein N-termini and precursor Q-value (FDR) cut-off of 0.01. […]

CDK2–cyclin A = biological target: T3, CDK2–cyclin A (Homo sapiens, UniProt P24941); assay: Lanthascreen kinase binding assay, CDK2
T3 construct: purchased Thermo Fisher
Description: Lanthascreen experiments were performed using commercially available reagents (Thermo Fisher) and according to the manufacturer’s instructions.

SMILES: CCC(CO)Nc1nc(NCc2ccc(-c3ccccn3)cc2)c2ncn(C(C)C)c2n1 (stereo not drawn) [CR8, reference compound]
- TR-FRET signal (CDK12–cyclin K and DDB1; 10 nM CDK12-cyclin K, compound 0.468 nM): 0.1037
- TR-FRET signal (CDK12–cyclin K and DDB1; 10 nM CDK12-cyclin K, compound 2.16 nM): 0.135
- TR-FRET signal (CDK12–cyclin K and DDB1; 10 nM CDK12-cyclin K, compound 3.6 nM): 0.1982
- TR-FRET signal (CDK12–cyclin K and DDB1; 10 nM CDK12-cyclin K, compound 7.92 nM): 0.284
- TR-FRET signal (CDK12–cyclin K and DDB1; 10 nM CDK12-cyclin K, compound 15.84 nM): 0.3713
- TR-FRET signal (CDK12–cyclin K and DDB1; 10 nM CDK12-cyclin K, compound 30.96 nM): 0.4536
- TR-FRET signal (CDK12–cyclin K and DDB1; 10 nM CDK12-cyclin K, compound 62.6399 nM): 0.4778
- TR-FRET signal (CDK12–cyclin K and DDB1; 10 nM CDK12-cyclin K, compound 125.279 nM): 0.4982
- TR-FRET signal (CDK12–cyclin K and DDB1; 10 nM CDK12-cyclin K, compound 244.8 nM): 0.5242
- TR-FRET signal (CDK12–cyclin K and DDB1; 10 nM CDK12-cyclin K, compound 993.6 nM): 0.5359
- TR-FRET signal (CDK12–cyclin K and DDB1; 10 nM CDK12-cyclin K, compound 2001.6 nM): 0.5508
- TR-FRET signal (CDK12–cyclin K and DDB1; 50 nM CDK12-cyclin K, compound 0.468 nM): 0.2224
- TR-FRET signal (CDK12–cyclin K and DDB1; 50 nM CDK12-cyclin K, compound 2.16 nM): 0.2548
- TR-FRET signal (CDK12–cyclin K and DDB1; 50 nM CDK12-cyclin K, compound 3.6 nM): 0.3253
- TR-FRET signal (CDK12–cyclin K and DDB1; 50 nM CDK12-cyclin K, compound 7.92 nM): 0.4723
- TR-FRET signal (CDK12–cyclin K and DDB1; 50 nM CDK12-cyclin K, compound 15.84 nM): 0.7533
- TR-FRET signal (CDK12–cyclin K and DDB1; 50 nM CDK12-cyclin K, compound 30.96 nM): 1.3518
- TR-FRET signal (CDK12–cyclin K and DDB1; 50 nM CDK12-cyclin K, compound 62.6399 nM): 2.31
- TR-FRET signal (CDK12–cyclin K and DDB1; 50 nM CDK12-cyclin K, compound 125.279 nM): 2.851
- TR-FRET signal (CDK12–cyclin K and DDB1; 50 nM CDK12-cyclin K, compound 244.8 nM): 2.999
- TR-FRET signal (CDK12–cyclin K and DDB1; 50 nM CDK12-cyclin K, compound 993.6 nM): 3.086
- TR-FRET signal (CDK12–cyclin K and DDB1; 50 nM CDK12-cyclin K, compound 2001.6 nM): 3.013
- CDK12 peptide count (CDK12): 540.299 and 612.59
- CDK12 peptide count (DMSO-normalised) (CDK12): 0.6003 and 0.6327

SMILES: CC(C)c1nn(-c2c(Cl)cccc2Cl)c2nc(Cc3ccc(OCCO)cc3)[nH]c(=O)c12 [compound 21195]
- CDK12 peptide count (CDK12): 493.905 and 565.93
- CDK12 peptide count (DMSO-normalised) (CDK12): 0.5487 and 0.5845
- Lanthascreen signal, sheet CDK2 (CDK2–cyclin A; Compound 0.038147 nM, raw replicates, experiment r48-r58): 0.01114 and 0.01116
- Lanthascreen signal, sheet CDK2 (CDK2–cyclin A; Compound 0.038147 nM, raw replicates, experiment r72-r82): 0.02274 and 0.02249 and 0.02111
- Lanthascreen signal, sheet CDK2 (CDK2–cyclin A; Compound 0.152588 nM, raw replicates, experiment r48-r58): 0.01418 and 0.01279
- Lanthascreen signal, sheet CDK2 (CDK2–cyclin A; Compound 0.152588 nM, raw replicates, experiment r72-r82): 0.0215 and 0.0211 and 0.01988
- Lanthascreen signal, sheet CDK2 (CDK2–cyclin A; Compound 0.610352 nM, raw replicates, experiment r48-r58): 0.01088 and 0.01046
- Lanthascreen signal, sheet CDK2 (CDK2–cyclin A; Compound 0.610352 nM, raw replicates, experiment r72-r82): 0.01525 and 0.01498 and 0.01532
- Lanthascreen signal, sheet CDK2 (CDK2–cyclin A; Compound 1.02544 nM, raw replicates, experiment r1-r11): 0.008805 and 0.007055
- Lanthascreen signal, sheet CDK2 (CDK2–cyclin A; Compound 3.15521 nM, raw replicates, experiment r1-r11): 0.006794 and 0.006701
- Lanthascreen signal, sheet CDK2 (CDK2–cyclin A; Compound 4.57247 nM, experiment r25-r34): 0.009774
- Lanthascreen signal, sheet CDK2 (CDK2–cyclin A; Compound 9.46563 nM, raw replicates, experiment r1-r11): 0.005367 and 0.004658
- Lanthascreen signal, sheet CDK2 (CDK2–cyclin A; Compound 9.76563 nM, raw replicates, experiment r48-r58): 0.004922 and 0.004545
- Lanthascreen signal, sheet CDK2 (CDK2–cyclin A; Compound 9.76563 nM, raw replicates, experiment r72-r82): 0.008551 and 0.007922 and 0.008628
- Lanthascreen signal, sheet CDK2 (CDK2–cyclin A; Compound 13.7174 nM, experiment r25-r34): 0.006843
- Lanthascreen signal, sheet CDK2 (CDK2–cyclin A; Compound 31.5521 nM, raw replicates, experiment r1-r11): 0.003961 and 0.003619
- Lanthascreen signal, sheet CDK2 (CDK2–cyclin A; Compound 39.0625 nM, raw replicates, experiment r48-r58): 0.004317 and 0.004069
- Lanthascreen signal, sheet CDK2 (CDK2–cyclin A; Compound 39.0625 nM, raw replicates, experiment r72-r82): 0.008233 and 0.00742 and 0.007049
- Lanthascreen signal, sheet CDK2 (CDK2–cyclin A; Compound 41.1523 nM, experiment r25-r34): 0.005858
- Lanthascreen signal, sheet CDK2 (CDK2–cyclin A; Compound 99.3891 nM, raw replicates, experiment r1-r11): 0.003218 and 0.002962
- Lanthascreen signal, sheet CDK2 (CDK2–cyclin A; Compound 123.457 nM, experiment r25-r34): 0.005407
- Lanthascreen signal, sheet CDK2 (CDK2–cyclin A; Compound 156.25 nM, raw replicates, experiment r48-r58): 0.004055 and 0.004446
- Lanthascreen signal, sheet CDK2 (CDK2–cyclin A; Compound 156.25 nM, raw replicates, experiment r72-r82): 0.007121 and 0.006977 and 0.007061
- Lanthascreen signal, sheet CDK2 (CDK2–cyclin A; Compound 315.521 nM, raw replicates, experiment r1-r11): 0.003513 and 0.004201
- Lanthascreen signal, sheet CDK2 (CDK2–cyclin A; Compound 370.37 nM, experiment r25-r34): 0.005303
- Lanthascreen signal, sheet CDK2 (CDK2–cyclin A; Compound 625 nM, raw replicates, experiment r48-r58): 0.004058 and 0.004497
- Lanthascreen signal, sheet CDK2 (CDK2–cyclin A; Compound 625 nM, raw replicates, experiment r72-r82): 0.007299 and 0.007212 and 0.007465
- Lanthascreen signal, sheet CDK2 (CDK2–cyclin A; Compound 2500 nM, raw replicates, experiment r48-r58): 0.004147 and 0.004489
- Lanthascreen signal, sheet CDK2 (CDK2–cyclin A; Compound 2500 nM, raw replicates, experiment r72-r82): 0.007107 and 0.006983 and 0.006617
- Lanthascreen signal, sheet CDK2 (CDK2–cyclin A; Compound 3155.21 nM, raw replicates, experiment r1-r11): 0.004846 and 0.003852
- Lanthascreen signal, sheet CDK2 (CDK2–cyclin A; Compound 3333.33 nM, experiment r25-r34): 0.004706
- Lanthascreen signal, sheet CDK2 (CDK2–cyclin A; Compound 10000 nM, experiment r25-r34): 0.005121
- Lanthascreen signal, sheet CDK2 (CDK2–cyclin A; Compound 10000 nM, raw replicates, experiment r48-r58): 0.003844 and 0.004325
- Lanthascreen signal, sheet CDK2 (CDK2–cyclin A; Compound 10000 nM, raw replicates, experiment r72-r82): 0.007331 and 0.007604 and 0.008348
- Lanthascreen signal, sheet CDK2 (CDK2–cyclin A; Compound 10002 nM, raw replicates, experiment r1-r11): 0.002963 and 0.004615
- IC50 (CDK2–cyclin A; Supplementary Table 2, read-out: Lanthascreen IC50 [nM] CDK2): 3 nM
